This note sets out measurements from patent US20060110376A1, “MDA-7 and free radicals in the treatment of cancer” (priority 2002, published 2006).

Peptide text beside a SMILES is read from it. * marks the point of attachment. Cbz = O=C(OCc1ccccc1)*; CH2F = FC*

One assay concerns SKOV3 cells. Kind of assay: MTT assay with 4-HPR. It is filed as cell-based, human. Particulars: 500 nM 4-HPR; MTT 96 h. On the procedure:
FIG. 35. Effect of transduction by Ad.mda-7 on the growth of the ovarian cancer cell line SKOV3 in the presence or absence of N-(4-hydroxyphenyl) retinamide (4-HPR).
SKOV3 cells (ATCC, Manassas Va.) were plated at 10,000 per well in 24 well plates. 24 h after plating cells were infected with either control virus or Ad.mda-7 virus at increasing multiplicities of viral infection. 24 h after infection, cells were treated with 500 nM 4-HPR. 96 h after 4-HPR addition, cell numbers were determined using MTT assays as described above.

The test system of assay [1] is prostate carcinoma cell lines (DU-145, PC-3, LNCaP). Kind of assay: MTT viability assay. It is filed as cell-based, human. On the procedure: (§1) Cells were seeded in 96-well plates, pretreated with NAC (5 mM) or Tiron (1 mM) for 2 h and infected with Ad.mda-7. Forty eight hours later, viability was assessed by MTT assay. […] Cells were seeded in 96-well plates, infected with Ad.mda-7 and treated with As2O3 (10 μM) or NSC656240 (400 nM). Forty eight h later, viability was assessed by MTT assay. Panel C. […] After treatment, cells were stained using DCF-DA and analyzed using flow cytometry. […] After treatment, cells were washed and stained with Annexin V-FITC conjugate. Late apoptotic and necrotic cells were excluded using PI staining. Results are the mean of three independent experiments performed with triplicate samples±S.E.
[…] Cellular viability was assessed by MTT assay 48 h after infection (Panel A). Mitochondrial membrane potential (DiOC6(3) staining, Panel B) and apoptotic changes (Annexin V staining, Panel C) were assessed 18 h (LNCaP cells) and 24 h (DU-145, PC-3 and P69 cells) after infection.
MTT Viability Assays. This method was performed as described (Lebedeva et al., 2000, Cancer Research 60:6052-6060). […] At the indicated time points, medium was removed, and fresh medium containing 0.5 mg/ml MTT was added to each well. The cells were incubated at 37° C. for 4 h and then an equal volume of solubilization solution (0.01N HCl in 10% SDS) was added to each well and mixed thoroughly. The optical density from the plates was read on a BioRad Microplate Reader Model 550 at 595 nm.
On the technique in general: Tetrazolium dyes change colour on reduction, which living cells bring about.

The subject of assay [2] is prostate cancer cell lines (DU-145, PC-3, LNCaP). The experiment in a line: Mitochondrial ΔΨm (DiOC6(3)) and ROS time course. It counts as cell-based, human. Particulars: CsA, BA pretreatment; 18 h (LNCaP), 24 h (DU-145, PC-3). On the procedure:
(§2) FIG. 33A-C. […] Prostate cancer and normal immortalized P69 cells were pretreated with inhibitors of MPT CsA (100 nM) or BA (50 μM), with the enhancer of MPT PK11195 (50 μM) or with the pan-caspase inhibitor z-VAD.fmk (50 μM) for 2 h following infection with Ad.vec or Ad.mda-7. Cellular viability was assessed by MTT assay 48 h after infection (Panel A). Mitochondrial membrane potential (DiOC6(3) staining, Panel B) and apoptotic changes (Annexin V staining, Panel C) were assessed 18 h (LNCaP cells) and 24 h (DU-145, PC-3 and P69 cells) after infection.

The subject of assay [3] is normal cells (immortalized human astrocytes or melanocytes). The experiment in a line: MTT viability assay. It is filed as cell-based. Particulars: Ad.mda-7 100 p.f.u./cell. The procedure: (§3) MTT Viability Assays. Cell viability was assessed by MTT assays as described (Lebedeva et al., 2000, Cancer Research 60:6052-6060). Briefly, cells were seeded in 96-well tissue culture plates (1.5×10^3 cells per well) and treated with various agents. At the indicated times, medium was removed, and fresh medium containing 0.5 mg/ml MTT was added to each well. The cells were incubated at 37° C. for 4 h and then an equal volume of solubilization solution (0.01N HCl in 10% SDS) was added to each well and mixed thoroughly. The optical density from the plates was read on a BioRad Microplate Reader Model 550 at 595 nm.

In assay [4] the test system is pancreatic cancer cells stably transformed to express MDA-7. The experiment in a line: Apoptosis and cell death in cells stably expressing MDA-7. It counts as cell-based, human. The source says: FIG. 49. Induction of apoptosis in pancreatic cancer cell lines (PANC-1) stably expressing MDA-7.
FIG. 50. Induction of apoptosis in pancreatic cancer cell lines (Mia PaCa-2) stably expressing MDA-7.
FIG. 51. Induction of apoptosis in pancreatic cancer cell lines (FM516 or BxPC-3) stably expressing MDA-7.

The subject of assay [5] is pancreatic carcinoma cells. Kind of assay: Apoptosis (annexin V exposure, hypodiploid A0 cells). It counts as cell-based, human. Particulars: annexin V exposure and A0 population. The source says:
FIG. 39. Combined treatment of pancreatic carcinoma cells by NSC656240 and Ad.mda-7 increases levels of annexin V in pancreatic cancer cells irrespective of K-ras status.
FIG. 40. NAC administration prevents the apoptosis of pancreatic cancer cells induced by treatment of pancreatic carcinoma cells by NSC656240 or Ar2O3 and Ad.mda-7.
FIG. 41. Combined treatment of pancreatic carcinoma cells by NSC656240 or Ar2O3 and Ad.mda-7 causes apoptosis irrespective of K-ras status.
Annexin V Binding Assays. Cells were trypsinized, washed once with complete medium and stained with FITC-labeled Annexin-V (kit from Oncogene Research Products, Boston, Mass.) according to the manufacturer's instructions. Flow cytometry was performed immediately after staining.
Cell Cycle Analysis. Cells were trypsinized, washed 2× with PBS and fixed in 70% ethanol overnight at −20° C. Then cells were washed 2 times with PBS, and aliquots of 1×10^6 cells were resuspended in 1 ml of PBS containing 1 mg/ml of RNase A and 0.5 mg/ml of propidium iodide. After 30 min incubation, cells were analyzed by flow cytometry using a FACScan flow cytometer (Becton Dickinson, San Jose, Calif.).

Assay [6] relates to pancreatic cancer cell lines. The experiment in a line: Western blotting of K-ras and MDA-7 protein. It is filed as cell-based, human. The source says:
FIG. 43. MDA-7 expression in pancreatic cancer cell lines in the presence or absence of Ad.mda-7, Ad.K-rasAS, or NSC656243. The presence of MDA-7 in mutant K-ras cell lines requires expression of both mda-7 and the antisense K-ras construct, and is potentiated by NSC656243.
FIG. 45. The MDA-7 expression observed in the PANC-1 or BxPC-3 cell lines following administration of Ad.mda-7 in combination with either NSC656240 or Ar2O3 is abrogated by NAC administration.
Preparation of Cell Extracts and Western Blotting Analysis. Cells were washed 2× with cold PBS and lysed on ice for 30 min in […] of cold RIPA buffer [50 mM Tris-HCl (pH 8.0), 150 mM NaCl, 0.1% SDS, 1% NP40, and 0.5% sodium deoxycholate] with freshly added 0.1 mg/ml phenylmethylsulfonyl fluoride, 1 mM sodium orthovanadate, and 1 mg/ml aprotinin. After cell debris were removed by centrifugation at 14,000 g for 10 min at 4° C., protein concentrations were determined using the Bio-Rad protein assay system (Bio-Rad Laboratories, Richmond, Calif.). Aliquots of cell extracts containing […] of total protein were resolved in 12% SDS-PAGE and transferred to Immobilon-P PVDF membranes (Millipore Corp., Bedford, Mass.). Filters were blocked for 1 h at room temperature in Blotto A [5% nonfat milk powder in TBS-T: 10 mM Tris-HCl (pH 8.0), 150 mM NaCl, 0.05% Tween 20], and then incubated for 1 h at room temperature in Blotto A containing a 1:1000 dilution of rabbit anti MDA-7 polyclonal antibody. After washing in TBS-T buffer (3×5 min, RT), filters were incubated for 1 h at room temperature in Blotto A containing a 1:10,000 dilution of peroxidase conjugated anti-rabbit secondary antibody (Amersham, Arlington Heights, Ill.). After washing in TBS-T, ECL was performed according to the manufacturer's recommendation.

The subject of assay [7] is pancreatic carcinoma cells. The experiment in a line: ROS production (flow cytometry). It counts as cell-based, human. On the procedure:
FIG. 46. Combined treatment by NSC656240 or Ar2O3 and Ad.mda-7 causes overproduction of ROS in pancreatic carcinoma cells.
Assessment of ROS Production. To determine ROS production, cells were stained with 2.5 μM HE or 5 μM DCFH-DA in PBS for 30 min at 37° C. in the dark. Immediately after staining, cells were analyzed by flow cytometry (FACSscan, Becton-Dickinson, Mountain View, Calif.), and data were analyzed using CellQuest software, version 3.1 (Becton Dickinson). For inhibition experiments, NAC (Sigma) was added 2 h prior to infection with Ad.mda-7. In all cases, cells were gated to exclude cell debris.
On the technique in general: In flow cytometry, cells or beads pass a laser one at a time.

The subject of assay [8] is pancreatic carcinoma cells. The experiment in a line: MTT viability assay. It counts as cell-based, human. Particulars: Ad.mda-7 100 p.f.u./cell. The procedure:
as §3

Another assay has as its system prostate carcinoma cells. Kind of assay: ROS production (DCF fluorescence, flow cytometry). It is filed as cell-based, human. Particulars: treated with NSC656240 or As2O3. The procedure:
as §1

Another assay relates to RT2 cells. Kind of assay: MTT assay with kinase inhibitors. It counts as cell-based, rat.
Assay [9] relates to normal immortal P69 prostate epithelial cells. Kind of assay: MTT viability assay. Particulars: PK11195 50 μM. It counts as cell-based, human. On the procedure: as §1, §2
MTT Viability Assays. […] The optical density from the plates was read on a BioRad Microplate Reader Model 550 at 595 nm.

Protocol for RT2 cells: Data are the means±SEM of 3 experiments # p<0.05 less than control treated cells, * p<0.05 less than corresponding value in cells not infected with Ad-mda-7. Panel C. […] Data are the means±SEM of 3 separate experiments. […] Data are the means±SEM of 3 separate experiments. […] Cells were incubated with vehicle or SP600125 (10 μM) 30 min prior to irradiation and growth determined via MTT assay 4 days after irradiation (±SEM, n=4).
The MTT test is based on the enzymatic reduction of the tetrazolium salt MTT in living, metabolically active cells. […] Twenty-four hours after infection/protein treatment, cells were treated with kinase inhibitor drugs and then irradiated. […] The plates were read on a Dynatech MR600 Microplate Reader at 540 nm. All data were normalized relative to the control, non-treated unirradiated cells of the corresponding cell type.

As for `CC1=C(/C=C/C(C)=C/C=C/C(C)=C/C(=O)Nc2ccc(O)cc2)C(C)(C)CCC1` [4-HPR, N-(4-hydroxyphenyl) retinamide], the “effect of 4-HPR on toxic effects of MDA-7 expression” value in the assay with SKOV3 cells was “potentiated the toxic effects of MDA-7 expression”.
For the compound `CO[C@H](C/C=C\C=C\CC/C=C/C[C@H](C)/C=C/C(=C\C(=O)O)CC(=O)O)/C(C)=C\C=C(/C)C(=O)O` [BA, bongkrekic acid], the “effect of MPT inhibitor on cell death of Ad.mda-7-infected cells” value in assay [1] (CsA (200 nM), BA (50 μM) pretreatment 2 h) is “prevented cell death”. The “effect on Ad.mda-7-induced decline in ΔΨm” value in [2] is “abrogated the decline in ΔΨm”.
In the case of `O=C1c2ccsc2C(=O)c2sc(CO)cc21` [NSC656240], the “effect of ROS-producing agent on cell death of Ad.mda-7-infected cells” value in assay [1] (As2O3 10 μM, NSC656240 400 nM, 48 h) is given as “potentiated cell death”. In addition, in assay [3], the “growth, combinational treatment with Ad.mda-7” value is on record as “does not affect growth of normal cells”. In addition, the “apoptosis and cell death” value in [4] was “caused apoptosis and cell death”. For the same compound, in assay [5], the “apoptosis, combination treatment with Ad.mda-7” value is recorded as “caused apoptosis in pancreatic carcinoma cells independently of their K-ras status”. For the same compound, the K-ras protein expression entry in assay [6] (alone or in combination with Ad.mda-7) was “does not down-regulate K-ras protein expression”. The “MDA-7 protein expression and secretion, combined treatment with Ad.mda-7” value in assay [6] (wt and mutated K-ras pancreatic cancer cell lines) was “leads to MDA-7 protein expression and secretion”. Further, the “ROS production, combined treatment with Ad.mda-7” value in assay [7] is listed as “Caused ROS overproduction”. Further, in [8], the “cell death, combinational treatment with Ad.mda-7” value is recorded as “caused death of these cells irrespective of their K-ras status”. Further, the ROS levels entry with prostate carcinoma cells was “ROS levels increased proportionally”.
As to `COc1cccc(-c2cc(=O)c3ccccc3o2)c1N` [PD98059], in the assay with RT2 cells (10 μm PD98059 + 5 μm LY294002), the “effect of combined MEK1/2 and PI3K inhibition on proliferation of Ad.mda-7 infected cells” value is “significant additional reduction in proliferation”. The “effect of single kinase inhibitor on anti-proliferative effects of Ad.mda-7” value in the assay on RT2 cells (10 μm PD98059 or 5 μm LY294002) is given as “neither MEK1/2 nor PI3K enhanced the anti-proliferative effects”.
Regarding `CCC(C)N(C)C(=O)c1cc2ccccc2c(-c2ccccc2Cl)n1` (stereo not drawn) [PK11195], in [1] (PK11195 50 μM), the “effect of PK11195 on Ad.mda-7-induced killing” value is reported as “enhanced Ad.mda-7-induced killing”. In addition, the “effect of PK11195 on MPT, annexin V staining and killing” value in assay [9] is reported as “without inducing any of these changes in P69 cells”.
As to `O=S(=O)(O)c1cc(O)c(O)c(S(=O)(=O)O)c1` [Tiron], in assay [1] (NAC 5 mM, Tiron 1 mM, 48 h), the “effect of antioxidant on cell death promoting activity of Ad.mda-7” value is given as “abrogated”.
As to `COC(=O)C[C@H](NC(=O)[C@H](C)NC(=O)[C@@H](NC(=O)OCc1ccccc1)C(C)C)C(=O)CF` [z-VAD.fmk] (Cbz-Val-Ala-Asp(OMe)-CH2F), the “effect of z-VAD.fmk on cell death” value in [1] (z-VAD.fmk 50 μM) was “inhibited cell death”.
